According to article PMC8566451, “Lead optimization of novel quinolone chalcone compounds by a structure–activity relationship (SAR) study to increase efficacy and metabolic stability” (Scientific Reports, 2021):

Key:
MCF7 = test: Sulforhodamine B (SRB) assay; assay type: cell-based; conditions: Homo sapiens; for IC50: MCF7, Supplementary Table S1, SRB; for GI50: MCF7 breast cancer cells, 48 h, SRB
Procedure: (§1) The human MDA-MB-231, MCF7, MDA-MB-468, RPMI-8226 and HeLa cell lines were purchased from ATCC and maintained in Dulbecco's Modified Eagle Medium (DMEM)—high glucose supplemented with 10% fetal bovine serum (FBS) and antibiotics/antimycotics. Cell line authentication was carried out by Genetica DNA Laboratories (Burlington, NC) using a short tandem repeat (STR) profiling method (March 2015; July 2015; September 2016). Melanoma cells E-055 (MZ-Mel-3), E-097 (Mel-SOE), E-112 (UKRV-Mel-38), E-157 (UKRV-Mel-17) were obtained from the European Searchable Tumour Line Database (ESTDAB) cell bank (a kind gift of Dr. Graham Pawelec, Tubingen University, Germany). MDA-MB-435 was purchased from the Division of Cancer Treatment and Diagnosis Tumor Repository. All melanoma cells were cultured in Roswell Park Memorial Institute (RPMI) medium supplemented with 10% FBS and P/S/antimycotics. Primary human epidermal melanocytes from normal adult abdominal skin were purchased from ATCC (cat # PCS-200–013) and Cell Applications (cat#104-05a). The melanocytes were cultured in the media supplied by the companies.
(§2) The SRB assay was used to assess drug-induced cytotoxicity and cell proliferation as previously described[2],[33],[34] with a few modifications. Briefly, cells were plated 10,000 to 25,000 cells/cm^2 in 96-well plates (100 µl medium) and allowed to adhere overnight. The cell counts were different for each cell line to ensure optimal cell growth for the duration of the assay. Eight different concentrations of compound solutions using 2–4 times serial dilutions (100 µl). Cells were then incubated for an additional 48 h and then fixed with 100 µl ice-cold 10% (w/v) trichloroacetic acid (TCA) (without removing the cell medium, final concentration, 3.3% of TCA) and stained with 0.4% SRB (w/v) in 1% acetic acid (v/v). The relative growth rate (%) was calculated for each of the compound concentrations according to the following formula: 100 * (T − T0)/(C − T0), in which T is the optical density (OD) after exposure to a certain concentration of the compound after 48 h, T0 is the OD at the start of drug exposure (time zero) and C is the control growth. The GI50 for each compound was obtained from a non-linear sigmoidal dose–response (variable slope) curve fitted by GraphPad Prism v.4.03 software.

RPMI-8226 = test: Sulforhodamine B (SRB) assay; assay type: cell-based; conditions: Homo sapiens, Supplementary Table S1, SRB
Procedure: as §1, §2

HeLa = test: Sulforhodamine B (SRB) assay; assay type: cell-based; conditions: Homo sapiens; for IC50: HeLa, Supplementary Table S1, SRB; for GI50: HeLa cervical cancer cells, 48 h, SRB
Procedure: as §1, §2

MDA-MB231 = test: Sulforhodamine B (SRB) assay; assay type: cell-based; conditions: Homo sapiens, MDA-MB-231; for IC50: Supplementary Table S1, SRB; for GI50: MDA-MB231 breast cancer cells, 48 h, SRB
Procedure: as §1, §2

[1] = test system: cancer cell lines (breast cancer, melanoma, cervical cancer); test: SRB assay, average GI50 over cancer cell lines; assay type: cell-based; conditions: average over the cell lines of Table 1 or Supplemental Table S1; read-out: average GI50
Procedure: as §2

UKRV-Mel-38 = test: Sulforhodamine B (SRB) assay; assay type: cell-based; conditions: UKRV-Mel-38 melanoma cells, 48 h
Procedure: as §1, §2

MDA-MB435 = test: Sulforhodamine B (SRB) assay; assay type: cell-based; conditions: Homo sapiens, MDA-MB-435, MDA-MB435 cells, 48 h
Procedure: as §1, §2

Mel-SOE = test: Sulforhodamine B (SRB) assay; assay type: cell-based; conditions: Mel-SOE melanoma cells, 48 h
Procedure: as §1, §2

UKRV-Mel-17 = test: Sulforhodamine B (SRB) assay; assay type: cell-based; conditions: UKRV-Mel-17 melanoma cells, 48 h
Procedure: as §1, §2

MDA-MB468 = test: Sulforhodamine B (SRB) assay; assay type: cell-based; conditions: Homo sapiens, MDA-MB-468, MDA-MB468 breast cancer cells, 48 h
Procedure: as §1, §2

MZ-Mel-3 = test: Sulforhodamine B (SRB) assay; assay type: cell-based; conditions: MZ-Mel-3 melanoma cells, 48 h
Procedure: as §1, §2

porcine tubulin = target: T1, porcine tubulin (Sus scrofa, UniProt P02550+P02554); test: In vitro tubulin polymerization assay; assay type: biochemical; conditions: 3 µM compound, 20 µM porcine tubulin, 37 °C, 60 min
T1 construct: purchased Cytoskeleton Inc., Denver, CO BK011P
Procedure: Spontaneous polymerization of 20 µM porcine tubulin was initiated with the addition of 1 mmol/L GTP at 37 °C and monitored every minute for 60 min in the presence of the indicated concentration of CTR-21, CTR-32, nocodazole, paclitaxel, or a DMSO vehicle control. To make the graph simpler, only 3 µM concentration is shown. […] A modified Dixon plot was used to determine the inhibitory concentration of CTR-21 and CTR-32 (Ki).
Microtubule assembly was assessed using a Tubulin Polymerization assay kit (BK011P; Cytoskeleton Inc., Denver, CO). […] Polymerization was started by incubating at 37 °C and followed by absorbance readings every 1 min at 340 nm for 1 h using a Synergy H4 plate reader.

MDA-MB231-TaxR = test: Sulforhodamine B (SRB) assay; assay type: cell-based; conditions: Homo sapiens, MDA-MB231-TaxR paclitaxel-resistant breast cancer cells, 48 h
Source text: We had initially determined that quinolone chalcones were promising anti-proliferative through a first round screening and identified CTR-17 and CTR-20 as favorable structures for anticancer activity. […] We carried out a comparative SAR study to determine if we could further optimize the quinolone chalcone to maximize efficacy. The Sulforhodamine B (SRB) assay was used to measure the anti-proliferative/cell killing activities of CTRs, for which several different cell lines were use: the cervical cancer HeLa, the breast cancer cell lines MDA-MB231, MDA-MB468, MDA-MB231TaxR (an induced paclitaxel-resistant sub-cell line of the MDA-MB231[9]) and MCF7. In addition, a subset was tested against the melanoma cell lines MZ-MEL-3.1, Mel-SOE, UKRV-Mel-38, UKRV-Mel-17 and MDA-MB-435 (Table 1, Supplemental Table S1).
as §2

T1 sequence (P02554 whole entry): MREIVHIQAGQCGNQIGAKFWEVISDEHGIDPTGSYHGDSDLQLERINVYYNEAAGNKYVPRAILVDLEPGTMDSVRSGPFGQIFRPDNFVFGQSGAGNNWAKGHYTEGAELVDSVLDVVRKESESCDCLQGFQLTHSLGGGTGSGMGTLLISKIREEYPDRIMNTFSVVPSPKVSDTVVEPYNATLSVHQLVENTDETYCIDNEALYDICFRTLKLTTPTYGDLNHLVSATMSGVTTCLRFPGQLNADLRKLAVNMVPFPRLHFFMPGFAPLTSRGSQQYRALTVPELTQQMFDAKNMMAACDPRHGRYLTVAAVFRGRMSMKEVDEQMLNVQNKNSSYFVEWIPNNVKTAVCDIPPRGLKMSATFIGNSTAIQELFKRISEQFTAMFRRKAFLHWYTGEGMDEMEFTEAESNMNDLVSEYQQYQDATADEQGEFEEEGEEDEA
T1 sequence (P02550 whole entry): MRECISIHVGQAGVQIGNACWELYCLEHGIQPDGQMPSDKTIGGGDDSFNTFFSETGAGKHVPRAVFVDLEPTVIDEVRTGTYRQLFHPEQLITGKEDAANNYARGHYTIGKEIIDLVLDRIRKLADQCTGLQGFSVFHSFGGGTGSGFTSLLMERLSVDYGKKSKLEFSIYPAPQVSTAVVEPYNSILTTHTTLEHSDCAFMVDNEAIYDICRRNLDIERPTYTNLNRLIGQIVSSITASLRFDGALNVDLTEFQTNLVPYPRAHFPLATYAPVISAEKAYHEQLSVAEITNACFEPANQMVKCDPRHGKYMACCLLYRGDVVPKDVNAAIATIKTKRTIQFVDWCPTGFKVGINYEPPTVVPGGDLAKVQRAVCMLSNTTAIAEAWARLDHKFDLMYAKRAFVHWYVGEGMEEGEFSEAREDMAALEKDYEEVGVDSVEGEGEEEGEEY

Compound	IC50 (MCF7) [nM]	IC50 (RPMI-8226) [nM]	IC50 (HeLa) [nM]	IC50 (MDA-MB231) [nM]	GI50 [1] [nM]	GI50 (MDA-MB435) [nM]	GI50 (MCF7) [nM]	GI50 (MDA-MB468) [nM]	GI50 (HeLa) [nM]	GI50 (MDA-MB231) [nM]	GI50 (MDA-MB231-TaxR) [nM]	GI50 (UKRV-Mel-38) [nM]	GI50 (Mel-SOE) [nM]	GI50 (UKRV-Mel-17) [nM]	GI50 (MZ-Mel-3) [nM]	effect on tubulin polymerization (porcine tubulin)
COc1cccc(OC)c1C(=O)/C=C/c1cc2ccccc2[nH]c1=O [CTR-25, (E)-3-(3-(2,6-dimethoxyphenyl)-3-oxoprop-1-enyl)quinolin-2(1H)-one]	1690 ± 70	770 ± 210	1320 ± 20	2600 ± 180	1600	–	–	–	–	–	–	–	–	–	–	–
CC(=O)O[C@H]1C(=O)[C@@]2(C)[C@H]([C@H](OC(=O)c3ccccc3)[C@]3(O)C[C@H](OC(=O)[C@H](O)[C@@H](NC(=O)c4ccccc4)c4ccccc4)C(C)=C1C3(C)C)[C@]1(OC(C)=O)CO[C@@H]1C[C@@H]2O [Tax, paclitaxel, reference compound]	–	–	–	–	–	4 ± 1	6 ± 1	9 ± 3	8 ± 1	3 ± 1	131 ± 35	6 ± 1	60 ± 16	14 ± 4	58 ± 15	shorter nucleation phase, steeper growth phase, and reaches steady state quicker
COc1ccccc1C(=O)/C=C/c1cc2cc(C)ccc2[nH]c1=O [CTR-18, (E)-3-(3-(2-methoxyphenyl)-3-oxoprop-1-enyl)-6-methylquinolin-2(1H)-one]	–	–	–	–	499	307 ± 7	510 ± 38	304 ± 2	443 ± 112	530 ± 119	1210 ± 179	746 ± 177	817 ± 34	596 ± 162	239 ± 13	–
COc1ccccc1C(=O)/C=C/c1cc2ccccc2[nH]c1=O [CTR-17, (E)-3-(3-(2-methoxyphenyl)-3-oxoprop-1-enyl)quinolin-2(1H)-one]	–	–	–	–	464	290 ± 66	485 ± 97	320 ± 26	280 ± 78	657 ± 72	1300 ± 83	626 ± 154	786 ± 52	504 ± 33	227 ± 30	–
COc1ccc(C(=O)/C=C/c2cc3cc(OC)ccc3[nH]c2=O)c(OC)c1 [CTR-35, (E)-3-(3-(2,4-dimethoxyphenyl)-3-oxoprop-1-enyl)-6-methoxyquinolin-2(1H)-one]	2120 ± 360	1320 ± 100	2070 ± 250	2350 ± 260	2000	–	–	–	–	–	–	–	–	–	–	–
COc1ccc(C(=O)/C=C/c2cc3ccccc3[nH]c2=O)c(OC)c1 [CTR-27, (E)-3-(3-(2,4-dimethoxyphenyl)-3-oxoprop-1-enyl)quinolin-2(1H)-one]	2200 ± 350	770 ± 100	1800 ± 270	2690 ± 240	–	–	–	–	–	–	–	–	–	–	–	–
COc1ccc2[nH]c(=O)c(/C=C/C(=O)c3ccccc3OC)cc2c1 [CTR-20, (E)-6-Methoxy-3-(3-(2-methoxyphenyl)-3-oxoprop-1-enyl) quinolin-2(1H)-one]	–	–	–	–	232	90 ± 10	194 ± 21	408 ± 12	124 ± 36	216 ± 21	966 ± 163	338 ± 33	338 ± 78	283 ± 57	98 ± 21	–

Further molecules by falling IC50 (MCF7), results first:

IC50 (MCF7) [nM]	IC50 (RPMI-8226) [nM]	IC50 (HeLa) [nM]	IC50 (MDA-MB231) [nM]	GI50 [1] [nM]	GI50 (MDA-MB435) [nM]	GI50 (MCF7) [nM]	GI50 (MDA-MB468) [nM]	GI50 (HeLa) [nM]	GI50 (MDA-MB231) [nM]	GI50 (MDA-MB231-TaxR) [nM]	Compound	GI50 (UKRV-Mel-38) [nM]	GI50 (Mel-SOE) [nM]	GI50 (UKRV-Mel-17) [nM]	GI50 (MZ-Mel-3) [nM]	effect on tubulin polymerization (porcine tubulin)
1540 ± 360	1040 ± 130	1340 ± 200	2020 ± 10	1500	–	–	–	–	–	–	COc1cc2cc(/C=C/C(=O)c3ccccc3OC)c(=O)[nH]c2cc1OC [CTR-24, (E)-6,7-dimethoxy-3-(3-(2-methoxyphenyl)-3-oxoprop-1-enyl)quinolin-2(1H)-one]	–	–	–	–	–
1470 ± 150	200 ± 30	1500 ± 130	1420 ± 80	–	–	–	–	–	–	–	COc1cc(F)ccc1C(=O)/C=C/c1cc2ccccc2[nH]c1=O [CTR-30, (E)-3-(3-(4-fluoro-2-methoxyphenyl)-3-oxoprop-1-enyl)quinolin-2(1H)-one]	–	–	–	–	–
1230 ± 80	150 ± 20	1110 ± 130	730 ± 60	805	–	–	–	–	–	–	COc1ccc2[nH]c(=O)c(/C=C/C(=O)c3ccc(OC(F)(F)F)cc3OC)cc2c1 [CTR-36, (E)-6-methoxy-3-(3-(2-methoxy-4-(trifluoromethoxy)phenyl)-3-oxoprop-1-enyl)quinolin-(1H)-one]	–	–	–	–	–
850 ± 60	260 ± 20	640 ± 30	840 ± 80	648	–	–	–	–	–	–	COc1ccc(OC)c(C(=O)/C=C/c2cc3cc(OC)ccc3[nH]c2=O)c1 [CTR-34, (E)-3-(3-(2,5-dimethoxyphenyl)-3-oxoprop-1-enyl)-6-methoxyquinolin-2(1H)-one]	–	–	–	–	–
320 ± 10	200 ± 30	290 ± 20	960 ± 150	443	–	–	–	–	–	–	COc1ccc(OC)c(C(=O)/C=C/c2cc3ccccc3[nH]c2=O)c1 [CTR-26, (E)-3-(3-(2,5-dimethoxyphenyl)-3-oxoprop-1-enyl)quinolin-2(1H)-one]	–	–	–	–	–
320 ± 40	100 ± 30	140 ± 30	390 ± 90	–	–	–	–	–	–	–	COc1ccc2[nH]c(=O)c(/C=C/C(=O)c3cc(F)ccc3OC)cc2c1 [CTR-37, (E)-3-(3-(5-fluoro-2-methoxyphenyl)-3-oxoprop-1-enyl)-6-methoxyquinolin-2(1H)-one]	–	–	–	–	–
140 ± 20	40 ± 10	60 ± 10	150 ± 10	98	–	–	–	–	–	–	COc1ccc2[nH]c(=O)c(/C=C/C(=O)c3ccc(F)cc3OC)cc2c1 [CTR-38, (E)-3-(3-(4-fluoro-2-methoxyphenyl)-3-oxoprop-1-enyl)-6-methoxyquinolin-2(1H)-one]	–	–	–	–	–
100 ± 10	70 ± 10	90 ± 20	210 ± 20	118	–	–	–	–	–	–	COc1ccc(F)cc1C(=O)/C=C/c1cc2ccccc2[nH]c1=O [CTR-29, (E)-3-(3-(5-fluoro-2-methoxyphenyl)-3-oxoprop-1-enyl)quinolin-2(1H)-one]	–	–	–	–	–
90 ± 10	50 ± 20	40	130 ± 20	36	23	41 ± 5	77 ± 13	19 ± 1	30 ± 4	54 ± 13	CCOc1ccccc1C(=O)/C=C/c1cc2cc(OC)ccc2[nH]c1=O [CTR-40, (E)-3-(3-(2-ethoxyphenyl)-3-oxoprop-1-enyl)-6-methoxyquinolin-2(1H)-one]	42 ± 11	53 ± 4	28 ± 5	11	–
